Where a SMILES comes first, the peptide text is derived from it. The star is where a group is joined. Biotin = O=C1N[C@H]2[C@H](CS[C@H]2CCCCC(=O)*)N1
Assays:
various growth factors = test: Further binding studies: preference of binding for various growth factors; settings: latter 3 growth factors: no detectable binding
Procedure: Since GDFs are also considered as members of the BMP family of proteins, and therefore share significant amino acid sequence homology, some binding cross-reactivity of peptides according to the presently disclosed subject matter with BMP-5 was noted. […] Further binding studies were performed from which was determined the preference of binding of peptides according to the presently disclosed subject matter for various growth factors. […] Thus peptides according to the presently disclosed subject matter show preferential binding to GDF-7, and show binding affinity for fibrous connective tissue-inducing growth factors.

[1] = Binding of surface-binding peptide to suture material; settings: braided polyethylene terephthalate fibers
Source text: To illustrate this embodiment, a linker was used to couple a peptide having binding affinity for a surface of an implant with a peptide having binding affinity for fibrous connective tissue-inducing growth factor. […] Similarly, peptides having amino acid sequences of SEQ ID NOs: 1-3 were used individually as representative peptides having binding affinity for fibrous connective tissue-inducing growth factor, and for inclusion as a component in a composition according to the presently disclosed subject matter.

GDF-7 = biological target: T1, GDF-7 (Mus musculus, UniProt P43029); test: GDF-7 binding by composition immobilized on polyethylene terephthalate suture; settings: 0.5 μM of the conjugate, relative to assay background
T1 construct: purchased R&D SYSTEMS
T1 sequence (P43029 316-461): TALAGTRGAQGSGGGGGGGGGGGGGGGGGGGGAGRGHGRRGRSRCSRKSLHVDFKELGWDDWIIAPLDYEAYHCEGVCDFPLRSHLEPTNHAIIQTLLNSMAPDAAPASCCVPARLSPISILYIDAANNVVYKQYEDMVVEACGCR
Source text: Using standard methods for peptide synthesis, amino acid sequences comprising SEQ ID NO:1-3 and SEQ ID NO: 67 were synthesized to contain an amino acid linker sequence (e.g., GSSGK, SEQ ID NO:72) at the C-terminus to which was linked biotin (via the lysine residue). See, for example, SEQ ID NOs: 73-76. Streptavidin (having 4 biotin binding sites) was used in conjunction with the biotin on the biotinylated peptides to form a linker between the two different peptide components. […]
Each of the three representative compositions according to the presently disclosed subject matter or the control conjugate were added individually to respective wells containing a suture and containing GDF-7 in various concentrations (starting at 100 nM final concentration for the compositions; 0.5 μM of the conjugate) with high salt buffer-T, and incubated for 1 hour at room temperature. […] It was determined in these experiments that maximal growth factor binding to the composition occurs within the first several minutes (e.g., within a time period ranging from 5 to 10 minutes), and that no additional GDF-7 appears to be retained to the surface of the implant in a time period of up to 1 hour of contact with the implant.

| Compound | preference for binding affinity (from highest relative binding affinity to lowest) (various growth factors) | also measured |
| --- | --- | --- |
| CC[C@H](C)[C@H](NC(=O)[C@H](CCC(=O)O)NC(=O)[C@H](CCCNC(=N)N)NC(=O)[C@@H]1CCCN1C(=O)CNC(=O)[C@H](CO)NC(=O)[C@@H](N)CO)C(=O)N[C@@H](Cc1c[nH]c2ccccc12)C(=O)N[C@@H](CC(=O)O)C(=O)N[C@@H](CO)C(=O)N[C@@H](CC(C)C)C(=O)N[C@H](C(=O)NCC(=O)N[C@H](C(=O)N[C@H](C(=O)N[C@@H](CC(N)=O)C(=O)N1CCC[C@H]1C(=O)NCC(=O)N[C@@H](Cc1c[nH]c2ccccc12)C(=O)N[C@@H](CO)C(=O)N[C@@H](CCCNC(=N)N)C(=O)NCC(=O)N[C@@H](CO)C(=O)N[C@@H](CO)C(=O)NCC(=O)N[C@@H](CCCCNC(=O)CCCC[C@@H]1SC[C@@H]2NC(=O)N[C@@H]21)C(N)=O)C(C)C)C(C)C)C(C)C [SEQ ID NO: 1, ssGPREIWDSLVGVVNPGWsr] (H-SSGPREIWDSLVGVVNPGWSRGSSGK(Biotin)-NH2; N-terminus and C-terminus assumed) | GDF-7>GDF-5, BMP-2>BMP-6>BMP-5>TGF-β1, TGF-β3, or PDGF-BB |  |
| CC(C)C[C@H](NC(=O)[C@H](C)NC(=O)[C@H](Cc1c[nH]c2ccccc12)NC(=O)CNC(=O)CNC(=O)[C@@H](NC(=O)CNC(=O)CNC(=O)[C@H](CO)NC(=O)[C@@H](N)CO)C(C)C)C(=O)N[C@@H](Cc1ccccc1)C(=O)N[C@@H](CCC(=O)O)C(=O)N[C@H](C(=O)N[C@@H](CC(C)C)C(=O)N[C@@H](CCCNC(=N)N)C(=O)NCC(=O)N[C@@H](CCCCN)C(=O)N[C@@H](CCC(=O)O)C(=O)N[C@H](C(=O)N[C@@H](CO)C(=O)N[C@@H](CCCNC(=N)N)C(=O)NCC(=O)N[C@@H](CO)C(=O)N[C@@H](CO)C(=O)NCC(=O)N[C@@H](CCCCNC(=O)CCCC[C@@H]1SC[C@@H]2NC(=O)N[C@@H]21)C(N)=O)C(C)C)[C@@H](C)O [SEQ ID NO: 2, ssGGVGGWALFETLRGKEVsr] (H-SSGGVGGWALFETLRGKEVSRGSSGK(Biotin)-NH2; N-terminus and C-terminus assumed) | GDF-7>GDF-5, BMP-2, and BMP-6>BMP-5>TGF-β1, TGF-β3, or PDGF-BB |  |
| CSCC[C@H](NC(=O)CNC(=O)[C@H](CCC(=O)O)NC(=O)[C@H](Cc1c[nH]c2ccccc12)NC(=O)[C@H](CO)NC(=O)[C@H](CCCNC(=N)N)NC(=O)[C@H](CC(C)C)NC(=O)[C@H](C)NC(=O)[C@H](Cc1c[nH]c2ccccc12)NC(=O)[C@H](CCC(=O)O)NC(=O)[C@H](C)NC(=O)[C@@H](NC(=O)[C@H](CO)NC(=O)[C@@H](N)CO)C(C)C)C(=O)N[C@@H](CCCNC(=N)N)C(=O)N[C@H](C(=O)NCC(=O)N[C@@H](CCC(=O)O)C(=O)N[C@@H](C)C(=O)N[C@@H](CO)C(=O)N[C@@H](CCCNC(=N)N)C(=O)NCC(=O)N[C@@H](CO)C(=O)N[C@@H](CO)C(=O)NCC(=O)N[C@@H](CCCCNC(=O)CCCC[C@@H]1SC[C@@H]2NC(=O)N[C@@H]21)C(N)=O)C(C)C [SEQ ID NO: 3, ssVAEWALRSWEGMRVGEAsr] (H-SSVAEWALRSWEGMRVGEASRGSSGK(Biotin)-NH2; N-terminus and C-terminus assumed) | GDF-7>GDF-5, BMP-2>BMP-6>BMP-5>TGF-β1, TGF-β3, or PDGF-BB |  |
| SWWGFWNGSAAPVWSR [SEQ ID NO: 67] |  | binding affinity for suture material [1]: showed binding affinity |
| peptide conjugate: negative control: biotinylated surface-binding peptide bound to streptavidin, without peptide having binding affinity for growth factor |  | binding for GDF-7 on suture (GDF-7): no appreciable binding |

From patent US8067021B2, “Methods and compositions for delivery of growth factor to fibrous connective tissue” (Affinergy, Inc., priority 2007, dated 2011)
